# Reference: publication PMC2364024, “Bioavailability and dose-dependent anti-tumour effects of 9-cis retinoic acid on human neuroblastoma xenografts in rat” (British Journal of Cancer, 2001)
# “And” between values parts separate entries of the source, which are not always exact repeats. Equal values may be shown once. “Also recorded” adds a separate entry of the source. Read-outs that look alike come from different tables or passages of the source.
# Experiments:
# [1] = rat, in vivo; for AUC (area under the curve) / Cmax (concentration maximum) / T1/2 (elimination half-life) / ratio AUC (4-oxo-9-cis RA)/AUC (9 cis RA): 9 mg; for conversion of 9-cis RA to its metabolite (4-oxo-9-cis RA) / ratio AUC (4-oxo-9-cis RA)/AUC (9 cis RA): male, Sprague-Dawley
# [2] = test system: human neuroblastoma SH-SY5Y xenografts; test: Neuroblastoma SH-SY5Y xenograft tumour growth in nude rats; type: in vivo
# Protocol: This increases the importance of finding new therapeutic drugs. […] Two animals were sacrificed at each time point. […] The true tumour weight was recorded at autopsy. […] All treatments were administered with a gastric feeding tube.
# [3] = test system: human neuroblastoma SH-SY5Y xenografts; design: method as in Ponthan et al, 2001; conditions: nude rats, 9-cis RA 5 mg day-1 (once daily); ref Ponthan et al, 2001; cited from earlier work
# [4] = Pharmacokinetic study of 9-cis RA in rat (plasma HPLC, one-compartment model)
compound,measurement,setting,value
"CC1=C(/C=C/C(C)=C\C=C\C(C)=C\C(=O)O)C(C)(C)CCC1=O [4-oxo-9-cis RA, 4-oxo-9-cis retinoic acid]",formed amount (AUC) of 4-oxo-9-cis RA after i.v. versus p.o. administration,[1],2 fold
same,Tmax (time of Cmax),[1]; iv,188 min
same,AUC (area under the curve),[1]; iv,6295 ng/mL/h
same,Cmax (concentration maximum),[1]; iv,0.738 µg/mL
same,T1/2 (elimination half-life),[1]; iv,129 min
same,Tmax (time of Cmax),[1]; po,275 min
same,AUC (area under the curve),[1]; po,3563 ng/mL/h
same,Cmax (concentration maximum),[1]; po,0.441 µg/mL
same,T1/2 (elimination half-life),[1]; po,126 min
"CC1=C(/C=C/C(C)=C\C=C\C(C)=C\C(=O)O)C(C)(C)CCC1 [9-cis RA, 9-cis retinoic acid]","tumour weight, trend",[2]; 2 x 2.5 mg day-1 treated group,tendency towards a reduction in tumour weights
same,"tumour weight at sacrifice, median (and range)","[2]; 9-cis RA 2 mg day-1 (RA 1), n 10 tumours, 12 days",2.79 g and 1.49 to 9.98 g
same,effect on tumour growth,[2]; 9-cis RA 2 mg day-1 p.o.,no significant effect on tumour growth; also recorded: tumour growth-inhibiting effect was not significant
same,tumour volume compared to control tumours,"[2]; 9-cis RA 2 mg day-1 p.o., 12 days",no significant reduction in tumour volume
same,effect on tumour growth,[2]; 9-cis RA 2.5 mg p.o. twice daily,only limited effect on tumour growth; also recorded: limited but statisti- cally significant reduction in tumour growth
same,tumour volume compared to corresponding controls,"[2]; 9-cis RA 2.5 mg p.o. twice daily, day 8",not at day 8
same,"tumour weight at sacrifice, median (and range)","[2]; 9-cis RA 2 x 2.5 mg (RA 2), n 3 tumours, 10 days",1.84 g and 0.92 to 2.95 g
same,tumour weight compared to untreated control tumours,"[2]; regardless of treatment schedule (2 mg day-1 or 2.5 mg twice daily), after 10-12 days of therapy",no significant reduction in tumour weight
same,conversion of 9-cis RA to its metabolite (4-oxo-9-cis RA),[1]; iv,about 8%
same,ratio AUC (4-oxo-9-cis RA)/AUC (9 cis RA),[1]; iv,0.08
same,conversion of 9-cis RA to its metabolite (4-oxo-9-cis RA),[1]; po,42%
same,ratio AUC (4-oxo-9-cis RA)/AUC (9 cis RA),[1]; po,0.42
same,effect on tumour growth,[3],significant reduction in tumour growth
same,elimination half-life (t1/2),"[4]; 9 mg 9-cis RA, p.o. and i.v. taken together",26 to 43 min
same,AUC (area under the curve),"[4]; intravenous administration, 9 mg 9-cis RA",80.1 µg·h/mL
same,Cmax,"[4]; male, Sprague-Dawley, plasma, iv, 9 mg",120 µg/mL
same,half-life,"[4]; male, Sprague-Dawley, plasma, iv, 9 mg, T1/2 (elimination half-life), intravenous administration, 9 mg 9-cis RA",26.4 min
same,bioavailability,"[4]; male, Sprague-Dawley, plasma, oral, 9 mg",11%
same,half-life,"[4]; male, Sprague-Dawley, plasma, other: p.o. and i.v. taken together, 9 mg, elimination half-life (t1/2), 9 mg 9-cis RA, p.o. and i.v. taken together",35 min
same,Cmax,"[4]; male, Sprague-Dawley, plasma, po, 9 mg",3 µg/mL
same,half-life,"[4]; male, Sprague-Dawley, plasma, po, 9 mg, T1/2 (elimination half-life), oral administration, 9 mg 9-cis RA",42.6 min
same,AUC (area under the curve),"[4]; oral administration, 9 mg 9-cis RA",8.55 µg·h/mL
